Results as given in PubChem BioAssay (NCI).
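Five compound concentrations were applied to cells in 96-well plates for 48 hours; endpoints were derived by simple linear interpolation of the resulting dose-response curve. Abbreviation: GI50, concentration required for 50% inhibition of growth. TGI: total growth inhibition.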

What was measured:
Assay in all cases: NCI-60 cell line screen, 48 h
786-0 renal = system: 786-0 renal
A549 NSCLC = system: A549 NSCLC
DU-145 prostate = system: DU-145 prostate
HCT-116 colon = system: HCT-116 colon
IGROV1 ovarian = system: IGROV1 ovarian
LOX IMVI melanoma = system: LOX IMVI melanoma
NCI-H226 lung = system: NCI-H226 lung
OVCAR-8 ovarian = system: OVCAR-8 ovarian
SK-OV-3 ovarian = system: SK-OV-3 ovarian
U251 CNS = system: U251 CNS

Row | Compound | TGI (786-0 renal) [µM] | TGI (A549 NSCLC) [µM] | TGI (DU-145 prostate) [µM] | TGI (HCT-116 colon) [µM] | TGI (IGROV1 ovarian) [µM] | TGI (LOX IMVI melanoma) [µM] | TGI (NCI-H226 lung) [µM] | TGI (OVCAR-8 ovarian) [µM] | TGI (SK-OV-3 ovarian) [µM] | TGI (U251 CNS) [µM] | GI50 (786-0 renal) [µM] | GI50 (A549 NSCLC) [µM] | GI50 (DU-145 prostate) [µM] | GI50 (HCT-116 colon) [µM] | GI50 (IGROV1 ovarian) [µM] | GI50 (LOX IMVI melanoma) [µM] | GI50 (NCI-H226 lung) [µM] | GI50 (OVCAR-8 ovarian) [µM] | GI50 (SK-OV-3 ovarian) [µM] | GI50 (U251 CNS) [µM]
1 | COc1cc2c(cc1OC)[C@H](C)N1CCc3cc(OC)c(OC)cc3[C@@H]1C2 | > 100 | > 100 | > 100 | > 100 | > 100 | > 100 | > 100 | > 100 | > 100 | > 100 | – | – | – | – | – | – | – | – | – | –
2 | Cc1c(Cl)cccc1C(=O)Nc1nc2c(s1)CN(C(=O)c1ccc(C(F)(F)F)cc1)CC2 | > 33.3 | > 50 | > 50 | > 18.4 | > 50 | > 23.1 | – | > 35.3 | > 50 | > 35.6 | 0.184 | 0.124 | 0.194 | 0.101 | 0.177 | 0.163 | 0.157 | 0.241 | 0.227 | 0.145
3 | COc1ccc2c(c1)c(CC(=O)[Se]C)c(C)n2C(=O)c1ccc(Cl)cc1 | > 0.428 | > 0.603 | > 0.807 | > 0.543 | > 0.615 | > 0.528 | > 0.27 | > 0.733 | 0.989 | > 0.573 | > 0.197 | > 0.283 | > 0.423 | > 0.204 | > 0.199 | > 0.203 | – | > 0.346 | > 0.658 | > 0.326
4 | Cc1cc2c(C(C)C)c(O)c(O)cc2c(O)c1-c1c(C)cc2c(C(C)C)c(O)c(O)cc2c1O | 33.9 | 47.2 | 78 | 14 | 23.6 | 16.2 | 34.9 | 41.1 | 73.5 | 14.5 | 16.7 | 17.2 | 22 | 3.98 | 10.1 | 4.42 | 16.5 | 15.2 | 23.9 | 4.16
5 | CC1=C(C(=O)Nc2ccc3n[nH]c(C)c3c2)C(c2ccc(C(F)(F)F)cc2)CC(=O)N1 (stereo not drawn) | > 25 | > 25 | > 25 | > 25 | > 25 | > 25 | > 17.7 | > 25 | > 25 | > 25 | > 25 | 18.5 | > 25 | 12.5 | 10.3 | 12.8 | 0.709 | > 25 | 24.2 | > 25
6 | CC1=C(c2cccc(O)c2)[C@H](c2ccc(OCCN3CC(CF)C3)cc2)Oc2ccc(O)cc21 | 18.9 | 23.8 | 15 | 17.5 | 16.6 | 5.16 | 28.2 | 32.6 | 20.6 | 18.1 | 5.15 | 7.81 | 4.18 | 4.46 | 4.42 | 2.23 | 10.7 | 12.9 | 6.26 | 4.19
